Results reported in article PMC7856885 (Advanced Science, 2020).
pIC50: −log10 of the molar value. Entries after “also recorded” stand apart in the source; their conditions may differ. Read-outs that look alike come from different tables or passages of the source. Residues, ends and D or L forms follow the SMILES beside them. *: point of attachment. X1 = CC(=O)O[C@H]1C(=O)[C@@]2(C)[C@H]([C@H](OC(=O)c3ccccc3)[C@]3(O)C[C@H](OC(=O)[C@H](OC(=O)CC(=O)*)[C@@H](NC(=O)c4ccccc4)c4ccccc4)C(C)=C1C3(C)C)[C@]1(OC(C)=O)CO[C@@H]1C[C@@H]2O

Experiments:
MMP‐2 = assay: recombinant human MMP‐2 protein (5 ng µL^−1), activated with 4‐aminophenylmercuric acetate; conditions: 37 °C, up to 3 h
[1] = tumor tissue from brains of nude mice with orthotopic U87MG transplantation after i.v. injection; conditions: BALB/C athymic nude mice, up to 12 h
[2] = tumor‐free (normal) brain tissue of nude mice with orthotopic U87MG transplantation after i.v. injection; conditions: BALB/C athymic nude mice, up to 12 h
[3] = Solubility in PBS at 3 mg mL^−1 (appearance of the solution); format: physicochemical
U251 = assay: MTS cell proliferation assay; format: cell-based; conditions: Homo sapiens
Description: (§1) The human GBM cell lines (U87MG and U251) were respectively obtained from the American Type Culture Collection (ATCC, Manassas, VA) and the China Academic Sinica Cell Repository (Shanghai, China) and cultured in accordance with the protocol of the supplier. In brief, all the cell lines were maintained in Dulbecco's Modified Eagle Medium (DMEM; Gibco, Grand Island, NY) supplemented with 10% fetal bovine serum (FBS; Biological Industries, Kibbutz Beit Haemek, Israel). Cells were incubated in a humidified incubator at 37 °C under 5% CO2 atmosphere.
(§2) The cells treated with PBS and 100 × 10^−6 м SynB3‐PVGLIG were used as the control and the dual‐functional peptide control, respectively. After treatment, the cells were washed with PBS three times and subsequently incubated with 20 µL Cell Titer 96AQeuous One Solution Reagent (Promega, Madison, WI, USA) for 2 h at 37 °C. The absorbance was measured on a Synergy microplate reader (BioTek Instruments, Winooski, VT) at 490 nm. All the data were obtained from three independent experiments performed in three wells. The absorbance of cells in the control group was taken as 100% viability, and the inhibition rate of cell viability was counted by using the following equation: % Inhibition rate = (Absorbancecontrol − Absorbancetest)/(Absorbancecontrol − Absorbanceblank) × 100.

U87MG = assay: MTS cell proliferation assay; format: cell-based; conditions: Homo sapiens, U-87 MG, linear regression
Description: as §1, §2

U251+MMP‐2 siRNA = assay: MTS cell proliferation assay; format: cell-based; conditions: Homo sapiens
Description: as §1
(§3) Homo‐MMP‐2 siRNA and nonsilencing siRNA were designed and synthesized by GenePharma (Suzhou, China). The transfection of siRNA was performed using the X‐tremeGENE siRNA transfection reagent (Roche, Mannheim, Germany) in accordance with the manufacturer's instructions. Before transfection, all the cell lines were inoculated at a density of 5 × 10^5 cells per well in a 6‐well plate. After incubation overnight, the cells were washed with fresh DMEM medium without FBS. At the same time, the reagent of transfection was mixed with homo‐MMP‐2 siRNA or nonsilencing siRNA (50 × 10^−9 м) for 15 min at a room temperature. The solution of the transfection complex was then added into the cell for 24 h. As a negative control group, a nonsilencing siRNA was transfected in the cell line in order to eliminate the influence of the transfection reagent.
as §2

U87MG+MMP‐2 siRNA = assay: MTS cell proliferation assay; format: cell-based; conditions: Homo sapiens
Description: as §1, §3, §2

[4] = Real‐time fluorescence imaging (Cy5) and biodistribution analysis; format: in vivo, U87MG xenograft nude mice; conditions: Cy5‐labeled; for Drug distribution at the tumor site in the brain: 5.25 µmol/5 mL kg^−1
Description: An untreated group was administered with physiological saline as a control. Real‐time fluorescence images were captured and analyzed using the IVIS Lumina Imaging System (PerkinElmer, Waltham, MA). […] At 0.5, 2, 4, 12, 24 and 48 h after administration, 3 mice were taken from each group to capture real‐time fluorescence images of the tumor and drug distribution, and the images were analyzed by the IVIS Lumina Imaging System. The excitation and emission quantitative wavelengths used were 640 nm and 700 nm, respectively. At the end of each experiment, animals were euthanized and their brains, lungs, hearts, livers, and kidneys were harvested and further tested by the IVIS Lumina imaging system to determine the drug distribution in tissue from each organ.

[5] = target: T1, recombinant human MMP‐2 protein (Homo sapiens, UniProt P08253); assay: Release study: cleavage by MMP‐2, HPLC/MS; format: in vitro ADME
T1 construct: purchased PeproTech (Rocky Hill, NJ, USA)
T1 sequence (P08253 110-660): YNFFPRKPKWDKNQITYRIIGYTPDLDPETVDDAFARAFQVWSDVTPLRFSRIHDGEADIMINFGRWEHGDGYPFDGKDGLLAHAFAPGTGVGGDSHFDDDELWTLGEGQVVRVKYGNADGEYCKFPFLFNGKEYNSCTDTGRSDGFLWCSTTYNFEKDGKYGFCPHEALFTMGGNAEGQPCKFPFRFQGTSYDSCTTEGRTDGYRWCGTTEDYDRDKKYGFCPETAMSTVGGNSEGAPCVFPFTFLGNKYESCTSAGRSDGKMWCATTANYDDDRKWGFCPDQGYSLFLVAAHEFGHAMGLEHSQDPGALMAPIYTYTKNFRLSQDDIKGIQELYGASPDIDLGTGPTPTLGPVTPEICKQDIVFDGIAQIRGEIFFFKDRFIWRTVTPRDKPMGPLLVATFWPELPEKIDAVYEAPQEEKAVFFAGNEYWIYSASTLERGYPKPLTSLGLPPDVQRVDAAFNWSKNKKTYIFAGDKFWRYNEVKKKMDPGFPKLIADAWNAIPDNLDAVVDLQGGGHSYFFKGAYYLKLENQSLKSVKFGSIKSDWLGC
Description: The recombinant human MMP‐2 protein with 62.0 kDa molecular weight was purchased from PeproTech (Rocky Hill, NJ, USA). To observe the ability of cleavage in vitro, MMP‐2 was incubated with 4‐aminophenylmercuric acetate (7 × 10^−3 M) at 37 °C for 1 h. […] The reacting solution (50 µL) was then collected and analyzed through HPLC/MS. The spectra data were collected at 220 nm using gradient solvent conditions. BEH C18, 1.7 × 10^−6 м, 100 × 2.1 mm column was used. The chromatographic conditions used for the analyses were: solvent A – 0.1% formic acid in water; solvent B – 0.1% formic acid in acetonitrile: 0–15 min: 2% MeCN, 15–18 min: 100% MeCN, 18–20 min: 2% MeCN, with a flow rate of 0.3 mL min^−1.

[6] = Cerebral distribution: free PTX in tumor and tumor‐free brain tissue by HPLC/MS; format: in vivo, nude mice with orthotopic U87MG transplantation
Description: PTX levels in the mouse brains were measured by the HPLC/MS method. […] Tumor‐free brain tissue as well as the tumor were isolated and weighed separately. The tissue was placed on a 35 mm dish and washed with PBS on ice. The tissue was then cut into small pieces with a surgical scissor and transferred into a 1.5 mL centrifuge tube. Appropriate amounts of 50% methanol were added into the tube to prepare the tissue suspension (0.2 g mL^−1). The tissue suspensions were thoroughly homogenized by an ultrasonic cell disrupter. Thereafter, the tissue homogenates were centrifuged at 10 000 × g for 30 min. The precipitate was removed, and the supernatant was collected for further content analysis by HPLC/MS. […] The drug response values were obtained and analyzed.

[7] = 5.25 µmol/5 mL kg^−1, tail vein

Row | Molecule | pIC50 (U251; U-251, U251, 4 h) | pIC50 (U251; U-251, U251, 24 h) | pIC50 (U251; U-251, U251, 48 h) | pIC50 (U87MG; 4 h) | pIC50 (U87MG; 24 h) | pIC50 (U87MG; 48 h) | pIC50 (U251+MMP‐2 siRNA; 4 h) | pIC50 (U251+MMP‐2 siRNA; 24 h) | pIC50 (U251+MMP‐2 siRNA; 48 h) | pIC50 (U87MG+MMP‐2 siRNA; 4 h) | pIC50 (U87MG+MMP‐2 siRNA; 24 h) | pIC50 (U87MG+MMP‐2 siRNA; 48 h) | Drug distribution at the tumor site in the brain [4] | Tissues in which the fluorescence signal (Cy5) was mainly detected [4, 7] | also measured
1 | PVGLIG-RRLSYSRRRF |  |  |  |  |  |  |  |  |  |  |  |  |  |  | fragment found (MMP‐2): PVG‐PTX, 0.5 h; also recorded: SynB3-LIG; fragment found [1]: free PTX, 2 h; fragment found [2]: free PTX, 2 h
2 | CC(=O)O[C@H]1C(=O)[C@@]2(C)[C@H]([C@H](OC(=O)c3ccccc3)[C@]3(O)C[C@H](OC(=O)[C@H](O)[C@@H](NC(=O)c4ccccc4)c4ccccc4)C(C)=C1C3(C)C)[C@]1(OC(C)=O)CO[C@@H]1C[C@@H]2O [PTX, Paclitaxel] | 3.74 | 4.33 | 4.56 | 3.83 | 4.33 | 4.50 | 3.87 | 4.50 | 4.63 | 3.68 | 4.43 | 4.54 | no drug distribution was detected | lungs, liver, and kidneys | Solubility in PBS (appearance) [3]: nearly insoluble
3 | CC[C@H](C)[C@H](NC(=O)[C@H](CC(C)C)NC(=O)CNC(=O)[C@@H](NC(=O)[C@@H]1CCCN1C(=O)CC(=O)O[C@@H](C(=O)O[C@H]1C[C@@]2(O)[C@@H](OC(=O)c3ccccc3)[C@@H]3[C@]4(OC(C)=O)CO[C@@H]4C[C@H](O)[C@@]3(C)C(=O)[C@H](OC(C)=O)C(=C1C)C2(C)C)[C@@H](NC(=O)c1ccccc1)c1ccccc1)C(C)C)C(=O)NCC(=O)N[C@@H](CCCNC(=N)N)C(=O)N[C@@H](CCCNC(=N)N)C(=O)N[C@@H](CC(C)C)C(=O)N[C@@H](CO)C(=O)N[C@@H](Cc1ccc(O)cc1)C(=O)N[C@@H](CO)C(=O)N[C@@H](CCCNC(=N)N)C(=O)N[C@@H](CCCNC(=N)N)C(=O)N[C@@H](CCCNC(=N)N)C(=O)N[C@@H](Cc1ccccc1)C(=O)O [SynB3‐PVGLIG‐PTX, PTX‐2′OH‐malonyl‐PVGLIG‐SynB3] (X1-PVGLIGRRLSYSRRRF-OH) |  |  |  |  |  |  |  |  |  |  |  |  | mainly distributed in the transplanted gliomas | bladder, liver, kidneys, lungs, and brain | Cleavage without MMP‐2 ([5]; 2.5 mg mL^−1, no MMP‐2, HPLC/MS, neither PVG‐PTX nor free PTX detected): could not be cleaved; Percentage of conjugate cleaved by MMP‐2 ([5]; 2.5 mg mL^−1 conjugate, activated MMP‐2 5 ng µL^−1, 0.5 h, HPLC/MS): about 41.18%; Fluorescent signal at 48 h ([4]; 5.25 µmol/5 mL kg^−1, 48 h): could still be detected in brain; Time at which the fluorescent signal in the brain tumor peaked ([4]; 5.25 µmol/5 mL kg^−1, tail vein, imaged 0.5–48 h): 12 h; PTX concentration in tumor, times that of the normal brain ([6]; 2 h after single dose 5.25 µmol/5 mL kg^−1 i.v.): 20 times; Concentration of PTX in the tumor tissue, finally reached ([6]; last time point (sampling 2, 4, 12 h), single dose 5.25 µmol/5 mL kg^−1 i.v., HPLC/MS, n = 5): 456.32 µg G^−1; mean diameter of nanocomplex: 162 nm
4 | Cn1nnc2c(C(N)=O)ncn2c1=O [TMZ, Temozolomide] | 2.51 | 3.18 | 3.67 | 3.41 | 3.42 | 3.29 | 2.48 | 3.06 | 3.88 | 3.33 | 3.38 | 3.55 |  |  | Solubility in PBS (appearance) ([3]; 3 mg mL^−1 in PBS, visual): nearly insoluble
